Assay results published in paper PMC12597552 (Drug metabolism and disposition: the biological fate of …, 2025).
Entries after “also recorded” stand apart in the source; their conditions may differ. Like-named read-outs stand apart in the source and are kept apart here.

Tests used:
[1] = cited from earlier work
[2] = set by similarity to Δ9-THC; cited from earlier work
CYP3A4 [3] = target: T1, CYP3A4 (Homo sapiens, UniProt P08684); experiment: Inhibition of CYP3A4 activity in pooled human liver microsomes (midazolam probe); format: in vitro ADME; design: made in house; host or cells: HEK293 cells (microsomal fraction)
T1 sequence (P08684 whole entry): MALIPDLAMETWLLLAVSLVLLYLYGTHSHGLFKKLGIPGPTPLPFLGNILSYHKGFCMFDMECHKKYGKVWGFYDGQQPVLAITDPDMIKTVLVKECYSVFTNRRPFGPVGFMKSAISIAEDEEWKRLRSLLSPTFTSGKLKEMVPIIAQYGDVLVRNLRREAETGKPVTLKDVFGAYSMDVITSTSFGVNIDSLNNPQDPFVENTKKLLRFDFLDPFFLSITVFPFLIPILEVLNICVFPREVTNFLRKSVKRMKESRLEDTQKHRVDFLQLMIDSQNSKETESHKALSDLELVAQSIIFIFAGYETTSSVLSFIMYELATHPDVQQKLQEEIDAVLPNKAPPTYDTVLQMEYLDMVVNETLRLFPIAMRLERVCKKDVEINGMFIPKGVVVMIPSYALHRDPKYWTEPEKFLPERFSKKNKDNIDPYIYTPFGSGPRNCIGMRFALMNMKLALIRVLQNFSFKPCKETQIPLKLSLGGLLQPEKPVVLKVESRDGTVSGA

CYP2C9 [4] = target: T2, CYP2C9 (Homo sapiens, UniProt P11712); experiment: Initial inhibition screen at 1 or 10 μM, CYP2C9 (recombinant microsomes and HLM); format: in vitro ADME; design: made in house; host or cells: HEK293 cells (microsomal fraction); conditions: 10 μM cannabinoid; recombinant P450-overexpressing microsomes as well as HLM
T2 sequence (P11712 whole entry): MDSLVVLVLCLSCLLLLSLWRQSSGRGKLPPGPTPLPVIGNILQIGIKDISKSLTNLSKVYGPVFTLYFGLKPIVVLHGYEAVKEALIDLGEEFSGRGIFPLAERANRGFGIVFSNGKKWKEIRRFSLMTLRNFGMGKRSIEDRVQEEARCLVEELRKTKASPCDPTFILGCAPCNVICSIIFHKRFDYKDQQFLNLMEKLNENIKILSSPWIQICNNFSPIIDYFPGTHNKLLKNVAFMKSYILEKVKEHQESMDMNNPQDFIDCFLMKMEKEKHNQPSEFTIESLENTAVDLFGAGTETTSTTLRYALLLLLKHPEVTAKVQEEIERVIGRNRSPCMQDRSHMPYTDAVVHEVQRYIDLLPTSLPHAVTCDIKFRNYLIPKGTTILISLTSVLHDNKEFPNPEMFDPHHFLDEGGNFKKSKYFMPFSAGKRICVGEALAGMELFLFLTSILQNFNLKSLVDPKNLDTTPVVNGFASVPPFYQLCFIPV

CYP3A4 [5] = target: T1, CYP3A4; experiment: IC50 shift assay in recombinant CYP3A4 microsomes; format: in vitro ADME; design: made in house; conditions: recombinant CYP3A4-overexpressing microsomes, probe midazolam (1′-hydroxylation), 1′-hydroxylation of midazolam, rec CYP3A4, 30-min preincubation minus vs plus NADPH, mean ± SD
Method: (§1) To characterize inhibition type, IC50 shift studies were performed using recombinant P450-overexpressing microsomes. Assays were preincubated at 37°C for 30 minutes with cannabinoid with or without NADPH in the absence of a probe substrate. After preincubation, substrate was added and incubated for 30 minutes. IC50 values were calculated as mentioned above using GraphPad Prism 10.0.
(§2) IC50shift=IC50with30-minpreincubationminusNADPH/IC50with30-minpreincubationplusNADPH

CYP2C9 [6] = target: T2, CYP2C9; experiment: IC50 shift assay in recombinant CYP2C9 microsomes; format: in vitro ADME; design: made in house; conditions: recombinant CYP2C9-overexpressing microsomes, probe diclofenac (4′-hydroxylation), 4′-hydroxylation of diclofenac, rec CYP2C9, 30-min preincubation minus vs plus NADPH, mean ± SD
Method: as §1, §2

CYP2C9 [7] = target: T2, CYP2C9; experiment: Inhibition of recombinant CYP2C9-overexpressing microsomes (diclofenac and warfarin probes); format: in vitro ADME; design: made in house; host or cells: HEK293 cells (microsomal fraction); conditions: for Inhibition Type: cell merged over rec CYP2C9 and HLM; for inhibition mechanism (Lineweaver–Burk): recombinant P450 microsomes and HLM, consistent profiles; for IC50: IC50,u, rec CYP2C9 microsomes; for IC50 / Ki: unbound, mean ± SD; for Ki: Ki,u, rec CYP2C9
CYP3A4 [8] = target: T1, CYP3A4; experiment: Initial inhibition screen at 1 or 10 μM, CYP3A4 (recombinant microsomes and HLM); format: in vitro ADME; design: made in house; host or cells: HEK293 cells (microsomal fraction); conditions: for reduction of 1′-hydroxymidazolam formation: 10 μM cannabinoid, recombinant P450-overexpressing microsomes as well as HLM; for inhibition of CYP3A4 with testosterone as substrate: substrate-specific: midazolam vs testosterone
[9] = system: CYPs 1A2, 2B6, 2C8, 2C9, 2C19, 2D6, 2E1, and 3A4; experiment: Initial inhibition screen at 1 or 10 μM, panel of major hepatic P450 enzymes; format: in vitro ADME, human; conditions: for inhibition of other major hepatic P450 enzymes tested: enzymes other than CYPs 2C9 and 3A4; for inhibition of any P450 enzymes tested: 1 or 10 μM, recombinant microsomes and HLM
CYP2C9 and CYP3A4 = experiment: IC50,u / Ki,u summarised across all CYP2C9 and CYP3A4 enzyme-substrate pairs; format: in vitro ADME; conditions: human
CYP3A4 [10] = target: T1, CYP3A4; experiment: Inhibition of recombinant CYP3A4-overexpressing microsomes (midazolam probe); format: in vitro ADME; design: made in house; host or cells: HEK293 cells (microsomal fraction); conditions: for Inhibition Type: 1′-hydroxylation of midazolam, cell merged over rec CYP3A4 and HLM; for inhibition mechanism (Lineweaver–Burk): CYP3A4-mediated midazolam metabolism, recombinant P450 microsomes and HLM, consistent profiles
CYP2C9 [11] = target: T2, CYP2C9; experiment: Inhibition of CYP2C9 activity in pooled human liver microsomes (diclofenac and warfarin probes); format: in vitro ADME; design: made in house; host or cells: HEK293 cells (microsomal fraction); conditions: HLM, unbound, adjusted with fu,inc, mean ± SD; for IC50: IC50,u; for Ki: Ki,u
CYP2C9 [12] = target: T2, CYP2C9; conditions: CYP2C9-mediated 4′-hydroxylation of diclofenac; cited from earlier work
CYP3A4 [13] = target: T1, CYP3A4; conditions: CYP3A4-mediated 1′-hydroxylation of midazolam; cited from earlier work
CYP2B6 = conditions: read-out: Ki,u, cited from earlier work
CYP3A4 [14] = system: CYP3A4; design: method as in PMID 34493602; conditions: 800 mg oral dose of CBD; mechanistic static modeling; cited from earlier work
[15] = value set in static model; cited from earlier work
CB1 receptors = system: CB1 receptors; design: method as in PMID 10633038; conditions: partial agonist; cited from earlier work
CB2 receptors = system: CB2 receptors; design: method as in PMID 10633038; conditions: partial agonist; cited from earlier work
CYP2D6 = conditions: read-out: Ki,u, cited from earlier work
CYP2C9 [16] = conditions: mechanistic static modeling, cited from earlier work
CYP2C19 = conditions: read-out: Ki,u, cited from earlier work
CYP1A2 = conditions: read-out: Ki,u, cited from earlier work
[17] = system: major hepatic P450 enzymes; conditions: cited from earlier work
[18] = CYP2C9-mediated diclofenac metabolism
[19] = CYP2C9-mediated warfarin metabolism
[20] = diclofenac -> 4′-hydroxydiclofenac, adjusted with fu,inc of Δ9-THC / 11-OH-Δ9-THC, 3 experiments
[21] = warfarin -> 7′-hydroxywarfarin, adjusted with fu,inc
[22] = 4′-hydroxylation of diclofenac, adjusted with fu,inc
[23] = 7′-hydroxylation of warfarin, adjusted with fu,inc
[24] = diclofenac -> 4′-hydroxydiclofenac

Compound: CCCCCc1cc(O)c2c(c1)OC(C)(C)C1CC=C(CO)CC21 (stereo not shown) [11-OH-Δ8-THC, 11-hydroxy-Δ8-THC]
- Cmax ([1]; oral Δ8-THC dose 10 mg): 15 nM
- Cmax ([1]; oral Δ8-THC dose 20 mg): 100 nM
- Cmax ([1]; oral Δ8-THC dose 40 mg): 120 nM
- fu,p (unbound fraction of drug in plasma) [2]: 0.03
- IC50 (CYP3A4 [3]): 1570 ± 320 nM
- Ki (CYP3A4 [3]): 1200 ± 70 nM
- reduction of 4′-hydroxydiclofenac formation (CYP2C9 [4]): > 40%
- reduction of 7′-hydroxywarfarin formation (CYP2C9 [4]): > 40%
- reduction of 1′-hydroxymidazolam formation (CYP3A4 [8]): > 40%
- inhibition of CYP3A4 with testosterone as substrate (CYP3A4 [8]): inhibition observed for midazolam but not testosterone
- inhibition of other major hepatic P450 enzymes tested [9]: Minimal or no inhibition
- IC50 (CYP2C9 and CYP3A4; pH 7.4, probe diclofenac, warfarin (CYP2C9), midazolam (CYP3A4), recombinant P450-overexpressing microsomes, read-out: IC50,u across all P450 enzyme-substrate pairs): 790 to 1500 nM
- Ki (CYP2C9 and CYP3A4; pH 7.4, recombinant microsomes and HLM, read-out: Ki,u across all reactions): 400 to 1200 nM
- IC50 at 10 min (CYP2C9 and CYP3A4; pooled human liver microsomes, pH 7.4, probe diclofenac, warfarin (CYP2C9), midazolam (CYP3A4), HLM, read-out: IC50,u across all P450 enzyme-substrate pairs): 710 to 1700 nM
- IC50 (CYP3A4 [10]): 1480 ± 210 nM
- Ki (CYP3A4 [10]): 890 ± 200 nM
- Inhibition Type (CYP3A4 [10]): N
- inhibition mechanism (Lineweaver–Burk) (CYP3A4 [10]): noncompetitive inhibition
- IC50 (CYP2C9 [11]; [24]): 710 ± 430 nM
- IC50 (CYP2C9 [11]; warfarin -> 7′-hydroxywarfarin): 1720 ± 100 nM
- Ki (CYP2C9 [11]; 4′-hydroxylation of diclofenac): 770 ± 40 nM
- Ki (CYP2C9 [11]; 7′-hydroxylation of warfarin): 400 ± 80 nM

Compound: CCCCCc1cc(O)c2c(c1)OC(C)(C)C1CCC(CO)=CC21 (stereo not shown) [11-OH-Δ9-THC]
- mechanism of inhibition (CYP2C9 [12]): competitive inhibitors
- inhibitory effect on CYP3A4 (CYP3A4 [13]): not observed previously
- Ki (CYP2B6; CYP2B6 in HLM): 260 ± 41 nM
- Ki (CYP2B6; recombinant CYP2B6): 86 ± 66 nM

Compound: C=C(C)[C@@H]1CCC(C)=C[C@H]1c1c(O)cc(CCCCC)cc1O [CBD, cannabidiol]
- increase in systemic exposure of midazolam (CYP3A4 [14]): > 8 fold

Compound: O=C(O)Cc1ccccc1Nc1c(Cl)cccc1Cl [diclofenac]
- Fg (fraction of substrate available after intestinal metabolism) [15]: 0.64
- fm (fraction of hepatic clearance mediated by the inhibited P450 enzyme) [15]: 0.98

Compound: Cc1ncc2n1-c1ccc(Cl)cc1C(c1ccccc1F)=NC2 [midazolam]
- Fg (fraction of substrate available after intestinal metabolism) [15]: 0.51
- fm (fraction of hepatic clearance mediated by the inhibited P450 enzyme) [15]: 0.93

Compound: CC(=O)CC(c1ccccc1)c1c(O)c2ccccc2oc1=O (stereo not shown) [warfarin]
- fm (fraction of hepatic clearance mediated by the inhibited P450 enzyme) [15]: 0.91

Compound: CCCCCc1cc(O)c2c(c1)OC(C)(C)C1CC=C(C)CC21 (stereo not shown) [Δ8-THC, Δ8-Tetrahydrocannabinol]
- Cmax ([1]; oral Δ8-THC dose 10 mg): 7.9 nM
- Cmax ([1]; oral Δ8-THC dose 20 mg): 17.8 nM
- Cmax ([1]; oral Δ8-THC dose 40 mg): 48 nM
- potency relative to Δ9-THC (CB1 receptors): approximately half
- fu,p (unbound fraction of drug in plasma) [2]: 0.03
- IC50 (CYP3A4 [3]): 480 ± 110 nM
- Ki (CYP3A4 [3]): 520 ± 20 nM
- reduction of 4′-hydroxydiclofenac formation (CYP2C9 [4]): > 40%
- reduction of 7′-hydroxywarfarin formation (CYP2C9 [4]): > 40%
- IC50 shift at 30 min (CYP3A4 [5]): 0.85 ± 0.09
- IC50 shift at 30 min (CYP2C9 [6]): 1.24 ± 0.34
- Inhibition Type (CYP2C9 [7]; 4′-hydroxylation of diclofenac): N
- inhibition mechanism (Lineweaver–Burk) (CYP2C9 [7]; [18]): noncompetitive inhibition
- inhibition mechanism (Lineweaver–Burk) (CYP2C9 [7]; [19]): competitive inhibition
- IC50 (CYP2C9 [7]; [20]): 70 ± 10 nM
- IC50 (CYP2C9 [7]; [21]): 200 ± 30 nM
- Ki (CYP2C9 [7]; [22]): 260 ± 10 nM
- Ki (CYP2C9 [7]; [23]): 90 ± 40 nM
- Ki (CYP2C9 [7]; human, recombinant CYP2C9-overexpressing HEK293 microsomes, pH 7.4, probe warfarin (7′-hydroxylation), 7′-hydroxylation of warfarin, adjusted with fu,inc): 160 ± 40 nM
- reduction of 1′-hydroxymidazolam formation (CYP3A4 [8]): > 40%
- inhibition of CYP3A4 with testosterone as substrate (CYP3A4 [8]): inhibition observed for midazolam but not testosterone
- inhibition of other major hepatic P450 enzymes tested [9]: Minimal or no inhibition
- IC50 (CYP2C9 and CYP3A4; pH 7.4, both recombinant enzyme microsomes and HLM, read-out: IC50,u against CYPs 2C9 and 3A4): < 500 nM
- potency relative to Δ9-THC (CB2 receptors): approximately half
- IC50 (CYP3A4 [10]): 440 ± 140 nM
- Ki (CYP3A4 [10]): 860 ± 280 nM
- Inhibition Type (CYP3A4 [10]): N
- inhibition mechanism (Lineweaver–Burk) (CYP3A4 [10]): noncompetitive inhibition
- IC50 (CYP2C9 [11]; [24]): 230 ± 30 nM
- IC50 (CYP2C9 [11]; warfarin -> 7′-hydroxywarfarin): 440 ± 140 nM
- Ki (CYP2C9 [11]; 4′-hydroxylation of diclofenac): 320 ± 60 nM
- Ki (CYP2C9 [11]; 7′-hydroxylation of warfarin): 230 ± 90 nM

Compound: CCCCCc1cc(O)c2c(c1)OC(C)(C)C1CC=C(C(=O)O)CC21 (stereo not shown) [Δ8-THC-COOH, 11-nor-Δ8-tetrahydrocannabinol-9-carboxylic acid]
- inhibition of any P450 enzymes tested [9]: minimal or no inhibition; also recorded: no inhibition
- inhibition of any P450 enzymes tested ([9]; listed as 11-nor-Δ8-THC-9-carboxylic acid): no significant inhibition

Compound: CCCCCc1cc(O)c2c(c1)OC(C)(C)C1CCC(C)=CC21 (stereo not shown) [Δ9-THC, Δ9-tetrahydrocannabinol]
- Ki (CYP2D6; CYP2D6 in HLM): 280 ± 30 nM
- Ki (CYP2D6; recombinant CYP2D6): 110 ± 15 nM
- mechanism of inhibition (CYP2C9 [12]): competitive inhibitors
- increase in systematic exposure of diclofenac (CYP2C9 [16]; 40 mg oral dose of Δ9-THC): ≥ 44%
- increase in systematic exposure of diclofenac (CYP2C9 [16]; 130 mg oral dose of Δ9-THC): > 560%
- Ki (CYP2C19; CYP2C19 in HLM): 210 ± 82 nM
- Ki (CYP2C19; recombinant CYP2C19): 56 ± 18 nM
- Ki (CYP2B6; CYP2B6 in HLM): 380 ± 29 nM
- Ki (CYP2B6; recombinant CYP2B6): 250 ± 43 nM
- Ki (CYP1A2; CYP1A2 in HLM): 100 ± 56 nM
- Ki (CYP1A2; recombinant CYP1A2): 90 ± 27 nM

Compound: CCCCCc1cc(O)c2c(c1)OC(C)(C)C1CCC(C(=O)O)=CC21 (stereo not shown) [Δ9-THC-COOH]
- inhibition of any major hepatic P450 enzymes [17]: no inhibition
